# Test results from the supplement of paper PMC11451515.
# Test system: SEM cells
# Assay: cell viability relative to DMSO control; higher = less cytotoxic
# Conditions: 48 h
# How it was run: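 Viability is a per-plate percentage relative to DMSO wells, with cell-free wells as background. CellTiter-Glo One luminescence was read after 48 h at 37°C on 1536-well plates (5 μl) of NOMO1 or SEM (500 cells/well) or P12-Ichikawa (1000 cells/well) leukemia cells. The cells had been adapted for at least four passages in each medium and pin-dosed with library compounds in DMSO from 47 μM to 0.79 nM in 11 threefold steps.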
# [1] = HPLM + 10% dialyzed FBS, 0.000781 µM
# [2] = HPLM + 10% dialyzed FBS, 0.00234 µM
# [3] = HPLM + 10% dialyzed FBS, 0.00702 µM
# [4] = HPLM + 10% dialyzed FBS, 0.0211 µM
# [5] = HPLM + 10% dialyzed FBS, 0.0632 µM
# [6] = HPLM + 10% dialyzed FBS, 0.19 µM
# [7] = HPLM + 10% dialyzed FBS, 0.569 µM
# [8] = HPLM + 10% dialyzed FBS, 1.71 µM
# [9] = HPLM + 10% dialyzed FBS, 5.12 µM
# [10] = HPLM + 10% dialyzed FBS, 15.4 µM
# [11] = HPLM + 10% dialyzed FBS, 46.1 µM
# [12] = RPMI 5 mM glucose + 10% FBS, 0.000781 µM
# [13] = RPMI 5 mM glucose + 10% FBS, 0.00234 µM
# [14] = RPMI 5 mM glucose + 10% FBS, 0.00702 µM
# [15] = RPMI 5 mM glucose + 10% FBS, 0.0211 µM
# [16] = RPMI 5 mM glucose + 10% FBS, 0.0632 µM
# [17] = RPMI 5 mM glucose + 10% FBS, 0.19 µM
# [18] = RPMI 5 mM glucose + 10% FBS, 0.569 µM
# [19] = RPMI 5 mM glucose + 10% FBS, 1.71 µM
# [20] = RPMI 5 mM glucose + 10% FBS, 5.12 µM
# [21] = RPMI 5 mM glucose + 10% FBS, 15.4 µM
# [22] = RPMI 5 mM glucose + 10% FBS, 46.1 µM
# [23] = RPMI 5 mM glucose + 10% dialyzed FBS, 0.000781 µM
# [24] = RPMI 5 mM glucose + 10% dialyzed FBS, 0.00234 µM
# [25] = RPMI 5 mM glucose + 10% dialyzed FBS, 0.00702 µM
# [26] = RPMI 5 mM glucose + 10% dialyzed FBS, 0.0211 µM
# [27] = RPMI 5 mM glucose + 10% dialyzed FBS, 0.0632 µM
# [28] = RPMI 5 mM glucose + 10% dialyzed FBS, 0.19 µM
# [29] = RPMI 5 mM glucose + 10% dialyzed FBS, 0.569 µM
# [30] = RPMI 5 mM glucose + 10% dialyzed FBS, 1.71 µM
# [31] = RPMI 5 mM glucose + 10% dialyzed FBS, 5.12 µM
# [32] = RPMI 5 mM glucose + 10% dialyzed FBS, 15.4 µM
# [33] = RPMI 5 mM glucose + 10% dialyzed FBS, 46.1 µM
Compound,cell viability [1] [%],cell viability [2] [%],cell viability [3] [%],cell viability [4] [%],cell viability [5] [%],cell viability [6] [%],cell viability [7] [%],cell viability [8] [%],cell viability [9] [%],cell viability [10] [%],cell viability [11] [%],cell viability [12] [%],cell viability [13] [%],cell viability [14] [%],cell viability [15] [%],cell viability [16] [%],cell viability [17] [%],cell viability [18] [%],cell viability [19] [%],cell viability [20] [%],cell viability [21] [%],cell viability [22] [%],cell viability [23] [%],cell viability [24] [%],cell viability [25] [%],cell viability [26] [%],cell viability [27] [%],cell viability [28] [%],cell viability [29] [%],cell viability [30] [%],cell viability [31] [%],cell viability [32] [%],cell viability [33] [%]
CCC(CC)[C@H](NC(C)=O)[C@@H]1[C@H](O)[C@@H](C(=O)O)C[C@H]1NC(=N)N,62,68,77.2,87.2,76.1,32.7,57.9,79.1,78.3,66.1,87.8,89.2,84.2,84.6,80.4,103,17.8,94.4,102,87.2,77.7,88.3,69.9,71.9,80.8,80.9,81.8,56.7,50.9,95.9,114,71.9,68.6
CC(C)(C)C1=NC2=C([NH]1)C3=CC=C(F)C=C3C4=C2\C=C/NC4=O,118,114,130,130,125,116,111,89,38.8,32.1,50.1,96.8,116,141,115,126,138,114,98.6,37.2,18.1,32.3,,,,,,,,,,,
CC1(C)OC/2=C(\[C@H](NCC3=CC=CC=C3)[C@@H]1O)C(=O)C4=CC=CC=C4C2=O,103,95.6,91,115,98.4,111,106,110,83.6,41.1,9.15,80.9,71.7,98.4,83.9,94.1,91.9,108,99.7,54.2,24.5,5.4,96.8,74.4,109,97.7,94.4,106,109,92.5,83.4,48.1,8.42
CCCCOc1ccc(C(=O)Nc2ccc(F)cc2F)cc1,68.1,88.6,67.1,95.1,86.9,88.3,84.6,30.1,88.1,92.5,83.4,68.6,88.8,65.9,86.5,83.4,92.7,81.5,48.3,88.4,101,73.5,78,89.7,70.6,90.1,84.7,85.6,86.2,48.1,88,90.2,76.7
Cn1cc(-c2ccncc2)c(-c2ccc(OCc3ccc4ccccc4n3)cc2)n1,124,127,95,134,132,123,116,124,125,110,110,123,126,102,118,118,125,122,124,95.3,81.1,82.4,94.6,108,89.7,112,98,102,112,110,103,96.8,64.3
CN(C)[C@H]\1[C@@H]2[C@@H](O)[C@@H]\3C(=C)C4=C(C(=CC=C4)O)C(=O)C3=C(\O)[C@@]2(O)C(=O)\C(=C1O)C(N)=O,85.1,91.5,81.1,97.1,90.4,98.6,98.2,113,96.5,97.8,91.6,104,97.8,82.5,119,112,124,118,118,105,93.9,79.7,112,121,86.7,108,122,125,106,123,114,107,91.6
COc1cc2nc(-c3ccc(N4CCN(C)CC4)cc3)nc(NCCN3CCOCC3)c2cc1OC,104,111,95.7,102,112,44.1,11.3,8.34,4.72,4.43,2.62,108,115,91,111,107,107,41.1,14.1,7.04,3.02,2.56,114,106,107,102,111,81.7,29.3,10.7,5.08,3.57,2.59
CN(C)CCC=C1C2=C(C=CC=C2)\C=C/C3=C1C=CC=C3,108,115,120,100,116,124,116,101,108,99.1,72.2,108,116,106,109,109,112,93.1,68.7,102,101,84.9,112,108,129,130,119,128,112,106,116,108,81.7
